Values after ≈ are worked out from the molar mass of the structure shown. Values joined by “and” are separate entries in the source; they are usually repeats but may differ in a detail not shown here. Equal entries are not always repeated. “Also recorded” adds a separate entry of the source. Where two headings read alike, the source gives them in different places.
Experiments:
F. novicida = tested on: F. novicida; design: species or system Galleria mellonella; settings: in vivo
F. novicida glpT mutant = type: cell-based
[1] = tested on: intracellular F. novicida in A549 human alveolar epithelial cells; assay: microbe, parasite or virus in culture; type: cell-based
[2] = tested on: mouse macrophage RAW264.7 cells
[3] = tested on: intracellular F. novicida in RAW264.7 mouse macrophages; type: cell-based
[4] = tested on: intracellular F. novicida glpT mutant in A549 cells; type: cell-based
Wild-type F. novicida = assay: microbe, parasite or virus in culture; type: cell-based; settings: for inhibition at 1000 µM: read-out: Inhibition of growth
[5] = tested on: human lung epithelial A549 cells
[6] = mouse, in vivo; cited from earlier work
F. tularensis LVS DXR = F. tularensis LVS DXR (Francisella tularensis subsp. holarctica, UniProt Q2A4P9); assay: biochemical
DXR of E. coli = settings: cited from earlier work
[7] = tested on: M. tuberculosis whole cells; settings: cited from earlier work
DXR from M. tuberculosis = settings: read-out: half maximal activity against DXR; cited from earlier work
[8] = Francisella tularensis, A549, 20 h, read-out: Inhibition of intracellular growth

Sequence of F. tularensis LVS DXR (Q2A4P9 whole entry, looked up): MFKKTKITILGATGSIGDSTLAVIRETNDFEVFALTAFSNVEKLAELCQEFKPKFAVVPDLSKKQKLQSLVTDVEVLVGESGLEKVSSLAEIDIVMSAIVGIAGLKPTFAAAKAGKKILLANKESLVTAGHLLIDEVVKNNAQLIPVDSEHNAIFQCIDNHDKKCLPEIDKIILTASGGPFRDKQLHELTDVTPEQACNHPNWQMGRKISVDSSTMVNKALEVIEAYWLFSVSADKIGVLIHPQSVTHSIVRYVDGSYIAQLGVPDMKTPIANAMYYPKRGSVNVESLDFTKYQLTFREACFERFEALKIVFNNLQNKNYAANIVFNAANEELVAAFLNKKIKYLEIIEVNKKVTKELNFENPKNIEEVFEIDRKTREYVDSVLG

Row | SMILES | MIC (F. novicida glpT mutant) [µM] | Percent inhibition of growth (OD600 treated vs untreated) (F. novicida glpT mutant) | inhibition at 250 µM [1, 8] [%] | Cytotoxicity by LDH release [2] | Intracellular F. novicida remaining [3] | Effect on intracellular glpT mutant replication [4] | EC50 (Wild-type F. novicida) [µM] | Percent inhibition of growth (OD600 treated vs untreated) (Wild-type F. novicida) [%] | EC50 (Wild-type F. novicida; Francisella tularensis) [µM] | MIC (Wild-type F. novicida; Francisella tularensis, 48 h) [µM] | Cytotoxicity by LDH release [5] | Mean time to death (F. novicida; 30 mg/kg) [h] | Well tolerated dose [6] | Intracellular F. novicida remaining [1] | inhibition at 1000 µM (Wild-type F. novicida; Francisella tularensis) [%] | Effect on whole cells [7] | other results
1 | O=C(O)c1cn(C2CC2)c2cc(N3CCNCC3)c(F)cc2c1=O [Ciprofloxacin] |  |  |  |  |  |  |  |  |  |  |  |  |  |  |  |  | Mean time to death (F. novicida; 20 mg/kg): 103 h
2 | CC(=O)N(O)CCCP(=O)(OC(C)OC(=O)c1ccccc1)OC(C)OC(=O)c1ccccc1 (stereo not drawn) [Compound 1] | 200 (≈ 98.7 µg/mL) | 100% | 97 ± 0.8 | did not induce cytotoxicity | 1.68±0.28 ×10^5 CFU/well and 0.92±0.18 ×10^5 CFU/well | susceptible; also recorded: significant effect | 45.2 ± 3.7 | 100 | 45 | 202 (≈ 99.7 µg/mL) | did not induce cytotoxicity | 93 |  |  |  |  | inhibition at 400 µM [1, 8]: 99 ± 0.7%; Intracellular glpT mutant remaining [4]: 22.32±2.23 ×10^3 CFU/well
3 | CCCCCCOP(=O)(CCCN(O)C(C)=O)OCCCCCC [Compound 2] | >1000 | 11±7% |  |  |  |  |  | 27±14 | 481 ± 44 | 1090 (≈ 400 µg/mL) |  |  |  |  |  |  | MIC (Wild-type F. novicida; Francisella tularensis): 1100 µM (≈ 402 µg/mL)
4 | CCOP(=O)(CCCN(O)C(C)=O)OCC [Compound 3] |  |  |  |  |  |  |  |  |  |  |  |  |  |  |  |  | Inhibition of F. novicida (result in words) (Wild-type F. novicida): did not effectively inhibit; also recorded: ineffective
5 | CC(=O)N(O)CCCP(=O)(O)O [FR900098] | >1000 | 55±5% | 86 ± 6 | did not induce cytotoxicity |  | not affected; also recorded: no effect | 23.2 ± 1.2 | 97.1±0.8 | 23 | 254 (≈ 50.1 µg/mL) | did not induce cytotoxicity | 84 | up to 300 mg/kg | 0.56±0.26 ×10^3 CFU/well and 0.59±0.40 ×10^3 CFU/well | 100 | no effect on whole cells | IC50 (F. tularensis LVS DXR): 0.23 µM; IC50 (DXR of E. coli; read-out: IC50 against the DXR of E. coli): 0.062 µM; Inhibition of intracellular growth [1]: 85±10%
6 | O=CN(O)CCCP(=O)(O)O [Fosmidomycin] | >1000 | did not inhibit the growth of the glpT mutant at all | 98 ± 0.7 | did not induce cytotoxicity | 0.93±0.20 ×10^5 CFU/well | not affected; also recorded: no effect | 3.6 ± 0.2 | 99.6±0.2 | 3.5 | 136 (≈ 24.9 µg/mL) | did not induce cytotoxicity | 102 | up to 300 mg/kg | 0.07±0.03 ×10^3 CFU/well | 100 | no effect on whole cells | IC50 (DXR from M. tuberculosis): 0.31 µM; Inhibition of growth (F. novicida glpT mutant): not able to inhibit F. novicida glpT growth at all; also recorded: completely resistant; IC50 (DXR of E. coli; read-out: half maximal activity against DXR): 0.035 µM; Reduction of intracellular bacteria [1]: 2 log

From paper PMC3471904 (PLoS ONE, 2012)
